Assay results from ChEMBL document CHEMBL1201862, “PubChem BioAssay data set” (2004).
The source made the active and inactive calls. Cut-off read from the data, not from the text of the source, for most assays here: actives have a measured EC50 and inactives only a lower limit.

Legend:
[1] = system: BJ; assay: cytotoxicity toward BJ-TERT fibroblasts, dose response, cell-based, RAS-independent, luminescence (AID 1933); assay type: functional; settings: Homo sapiens
[2] = biological target: T1, Heat shock factor protein 1 (Mus musculus, UniProt P38532); assay: inhibition of MG132-induced HSE-luciferase signal, confirmation, cell-based, NIH3T3, luminescence, dose retest (AID 2382); assay type: functional;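 note: NIH3T3 fibroblasts with HSF1-driven luciferase reporter stressed by proteasome inhibitor MG132; luminescence from HSF1-driven luciferase expression after 8 hours of MG132 stress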
T1 sequence (P38532 whole entry): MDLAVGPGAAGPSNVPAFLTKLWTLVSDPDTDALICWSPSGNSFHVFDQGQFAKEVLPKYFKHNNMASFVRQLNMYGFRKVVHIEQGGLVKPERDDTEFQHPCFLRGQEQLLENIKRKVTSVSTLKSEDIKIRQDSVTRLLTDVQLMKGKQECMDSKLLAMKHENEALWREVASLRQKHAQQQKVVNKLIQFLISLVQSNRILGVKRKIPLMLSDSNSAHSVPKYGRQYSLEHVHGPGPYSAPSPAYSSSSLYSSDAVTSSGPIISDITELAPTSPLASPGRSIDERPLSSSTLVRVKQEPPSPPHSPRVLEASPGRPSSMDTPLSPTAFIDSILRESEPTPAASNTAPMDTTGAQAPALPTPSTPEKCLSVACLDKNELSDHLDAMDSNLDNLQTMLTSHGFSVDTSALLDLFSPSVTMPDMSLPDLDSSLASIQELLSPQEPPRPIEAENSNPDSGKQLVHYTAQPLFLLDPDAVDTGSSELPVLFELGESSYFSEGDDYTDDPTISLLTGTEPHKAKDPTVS

[3] = system: BJ; assay: cells; assay type: functional, cell-based; settings: Homo sapiens
[4] = microbe, parasite or virus in culture; assay type: functional; settings: Mycobacterium tuberculosis
[5] = system: BJ; assay: cytotoxicity toward BJ-TERT-LT-ST fibroblasts, dose response, cell-based, RAS-independent, luminescence (AID 1935); assay type: functional; settings: Homo sapiens;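 note: BJ fibroblasts immortalized with TERT plus LT and ST oncogenes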
[6] = cytotoxicity toward DRD oncogenic fibroblasts, dose response, cell-based, non-viral oncogenic, luminescence (AID 1934); assay type: functional; settings: Homo sapiens
[7] = Intein inhibitors as potential Tuberculosis drugs, a cytotoxicity screen. [Related pubchem assays (depositor defined):AID2221, AID2223, AID434968, AID435010, AID449749, AID449750, AID489010]; assay type: functional
[8] = biological target: T2, Replicative DNA helicase DnaB (Mycobacterium tuberculosis, UniProt P9WMR3); assay: DnaB intein splicing inhibitors, dose response, biochemical, cell-free fluorescence (AID 449749); assay type: functional
T2 sequence (P9WMR3 whole entry): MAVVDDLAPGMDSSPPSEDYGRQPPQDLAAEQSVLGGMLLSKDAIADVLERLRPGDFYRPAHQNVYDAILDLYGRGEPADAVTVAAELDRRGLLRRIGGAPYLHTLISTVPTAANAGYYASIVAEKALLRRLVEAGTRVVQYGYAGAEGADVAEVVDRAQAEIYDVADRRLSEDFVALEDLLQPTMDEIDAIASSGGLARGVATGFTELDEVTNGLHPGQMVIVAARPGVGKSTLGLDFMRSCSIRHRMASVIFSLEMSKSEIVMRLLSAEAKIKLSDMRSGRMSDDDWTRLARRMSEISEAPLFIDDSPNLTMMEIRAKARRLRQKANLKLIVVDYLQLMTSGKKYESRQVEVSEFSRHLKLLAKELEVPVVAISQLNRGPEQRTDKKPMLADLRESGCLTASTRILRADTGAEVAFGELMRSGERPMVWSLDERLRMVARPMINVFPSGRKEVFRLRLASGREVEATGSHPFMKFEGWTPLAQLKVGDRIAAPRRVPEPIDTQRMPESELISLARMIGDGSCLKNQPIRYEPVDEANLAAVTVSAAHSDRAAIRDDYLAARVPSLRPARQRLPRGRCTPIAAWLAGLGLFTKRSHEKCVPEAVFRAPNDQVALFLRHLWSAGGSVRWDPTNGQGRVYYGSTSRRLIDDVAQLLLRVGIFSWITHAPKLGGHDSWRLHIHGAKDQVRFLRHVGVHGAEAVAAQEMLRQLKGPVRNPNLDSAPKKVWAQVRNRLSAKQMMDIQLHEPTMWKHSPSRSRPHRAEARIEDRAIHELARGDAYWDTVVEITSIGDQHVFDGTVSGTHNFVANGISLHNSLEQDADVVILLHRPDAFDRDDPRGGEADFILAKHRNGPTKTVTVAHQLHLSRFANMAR

[9] = system: BJ; assay: cytotoxicity toward Ras-transformed BJeLR fibroblasts, dose response, cell-based, alamar blue fluorescence, cherrypicked samples (AID 2631); assay type: functional; settings: Homo sapiens;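 note: confirmatory dose-response assay in RAS-dependent BJ fibroblasts engineered with TERT, LT and ST, with cytotoxicity read by fluorescence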
[10] = biological target: T3, Protein RecA (Mycobacterium tuberculosis, UniProt P9WHJ3); assay: Fluorescence Cell-Free Homogeneous Dose Retest to Identify Inhibitors of RecA-Intein Splicing Activity. [Related pubchem assays (depositor defined):AID2097, AID2223, AID489010, AID492950]; assay type: functional
T3 sequence (P9WHJ3 whole entry): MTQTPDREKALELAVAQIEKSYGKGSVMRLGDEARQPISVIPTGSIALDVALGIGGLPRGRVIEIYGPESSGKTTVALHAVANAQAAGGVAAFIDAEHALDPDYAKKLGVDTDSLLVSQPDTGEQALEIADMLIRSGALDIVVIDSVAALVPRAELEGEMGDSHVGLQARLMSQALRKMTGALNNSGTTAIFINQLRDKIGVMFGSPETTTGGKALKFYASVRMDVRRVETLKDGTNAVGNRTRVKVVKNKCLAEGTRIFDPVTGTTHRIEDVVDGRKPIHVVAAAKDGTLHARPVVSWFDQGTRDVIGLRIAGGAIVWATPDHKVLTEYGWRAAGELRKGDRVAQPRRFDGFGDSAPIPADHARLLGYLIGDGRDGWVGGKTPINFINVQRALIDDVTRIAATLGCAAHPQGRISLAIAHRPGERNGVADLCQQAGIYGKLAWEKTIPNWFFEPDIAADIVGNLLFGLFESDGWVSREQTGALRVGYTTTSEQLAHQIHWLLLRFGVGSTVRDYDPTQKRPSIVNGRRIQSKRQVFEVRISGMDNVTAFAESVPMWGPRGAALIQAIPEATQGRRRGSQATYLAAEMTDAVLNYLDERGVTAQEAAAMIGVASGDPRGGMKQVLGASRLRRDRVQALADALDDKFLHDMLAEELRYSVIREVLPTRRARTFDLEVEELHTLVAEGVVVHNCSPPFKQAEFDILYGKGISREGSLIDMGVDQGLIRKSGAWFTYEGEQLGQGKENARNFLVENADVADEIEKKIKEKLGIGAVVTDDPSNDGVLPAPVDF

[11] = Luminescence Cell-Based Dose Response HTS to Identify Inhibitors of Luciferase Translation or Activity in H4-C Neuroglioblastoma Cells. [Related pubchem assays: 1813 (Primary HTS), 1827 (Project Summary)]; assay type: functional
[12] = inhibitors of firefly luciferase expression or activity, dose response, H4 neuroglioma cells, luminescence (AID 1990); assay type: functional, cell-based
[13] = Luminescence Cell-Based Dose Retest to Confirm Activators of 5'UTR Stem-Loop Driven Alpha-Synuclein mRNA Translation in H4 Neuroglioblastoma Cells. [Related pubchem assays (depositor defined):AID1813, AID1829]; assay type: functional
[14] = ELISA Cell-Based Dose Response to Identify Inhibitors of Alpha-Synuclein Translation in SH-SY5Y Cells. [Related pubchem assays: 1813 (Primary HTS), 1827 (Project Summary)]; assay type: functional
[15] = Luminescence Cell-Based Dose HTS Response to Identify Inhibitors of 5'UTR Stem-Loop Driven Prion Protein mRNA Translation in H4-C Neuroglioblastoma Cells. [Related pubchem assays (depositor defined):AID1814, AID1827]; assay type: functional
[16] = Western Blot Cell-Based Dose Response to Identify Inhibitors of […] Alpha-Synuclein Translation in H4 Cells. [Related pubchem assays: 1827 (Project Summary), 1813 (Primary HTS)]
[17] = Luminescence Cell-Based Dose Response HTS to Identify Inhibitors of 5'UTR Stem-Loop Driven Prion Protein mRNA Translation in H4 Neuroglioblastoma Cells. [Related pubchem assays: 1827 (Project Summary), 1813 (Primary HTS)]; assay type: functional
[18] = inhibitors of SNCA 5'UTR-driven reporter translation, confirmation, H4 neuroglioma cells, luminescence (AID 1988); assay type: functional, cell-based
[19] = Luminescence Cell-Based Dose Confirmation HTS to Identify Inhibitors of 5'UTR Stem-Loop Driven Alpha-Synuclein mRNA Translation in H4 Neuroglioblastoma Cells. [Related pubchem assays: 1827 (Project Summary), 1813 (Primary HTS)]; assay type: functional
[20] = biological target: T1, Heat shock factor protein 1; assay: HSF1 potentiators in luciferase reporter cells, confirmation, cell-based, NIH3T3, luminescence, dose retest (AID 435004); assay type: functional;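 note: stress induced by proteasome inhibitor MG132 added 30 min after compound; luciferase reporter driven by HSF1 response element in NIH3T3 cells; actives raise luminescence as potentiators of the MG132 stress response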
[21] = biological target: T4, Runt-related transcription factor 1/Core-binding factor subunit beta (Homo sapiens, UniProt Q01196+Q13951); assay: inhibitors of RUNX1 Runt–CBFb-SMMHC binding, primary screen, biochemical, FRET, Cerulean-Runt, Venus-CBFb-SMMHC, uHTS (AID 1434); assay type: protein assay;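 note: partner is the CBFb-SMMHC leukemia fusion protein rather than wild-type CBFb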
[22] = biological target: T4, Runt-related transcription factor 1/Core-binding factor subunit beta; assay: inhibitors of RUNX1 Runt–CBFb-SMMHC binding, biochemical, TR-FRET (AID 1438); assay type: protein assay

T4 sequence (Q01196 whole entry, the tested form may be a part): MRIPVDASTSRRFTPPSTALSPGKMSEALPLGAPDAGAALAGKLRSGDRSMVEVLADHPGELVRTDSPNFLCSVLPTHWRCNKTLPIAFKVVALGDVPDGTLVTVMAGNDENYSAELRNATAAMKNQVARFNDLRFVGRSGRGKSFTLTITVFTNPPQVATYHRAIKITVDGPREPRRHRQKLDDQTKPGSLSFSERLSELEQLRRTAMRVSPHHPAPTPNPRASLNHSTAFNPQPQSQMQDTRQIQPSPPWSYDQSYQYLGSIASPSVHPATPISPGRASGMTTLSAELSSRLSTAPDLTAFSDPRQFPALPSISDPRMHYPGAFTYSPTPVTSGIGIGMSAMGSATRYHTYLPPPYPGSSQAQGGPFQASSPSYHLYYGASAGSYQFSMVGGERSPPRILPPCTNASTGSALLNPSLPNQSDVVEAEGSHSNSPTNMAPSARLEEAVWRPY
T4 sequence (Q13951 whole entry, the tested form may be a part): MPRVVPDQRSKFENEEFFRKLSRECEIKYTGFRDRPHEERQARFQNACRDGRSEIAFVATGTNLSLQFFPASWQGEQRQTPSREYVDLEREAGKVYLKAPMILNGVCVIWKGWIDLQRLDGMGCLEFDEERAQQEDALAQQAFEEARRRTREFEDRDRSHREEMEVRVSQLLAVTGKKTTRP

In the case of COc1cc2c(cc1OC)C(c1cc(Br)ccc1F)N(C(=O)CCl)CC2 (configuration not stated), the EC50 [1] is reported as 2.7 µM (inconclusive), the EC50 [2] is reported as 3.09 µM (active) and the EC50 [3] is reported as 6.1 µM (active). For the same compound, the CC50 [4] was 5.64 µM (active), the EC50 [5] was 5.02 µM (inconclusive) and the EC50 [6] was 5.12 µM (active). The CC50 [7] was 4.2 µM (active), the AC50 [8] was 4.29 µM (active) and the EC50 [9] was 1.41 µM (active). For the same compound, the EC50 [10] was 0.8 µM (active).

In the case of CN(C)c1nc(N)nc(CSc2nnnn2-c2cccc3ccccc23)n1, the EC50 [11] is reported as > 195 µM (not active), the EC50 [12] is reported as > 120 µM (not active) and the EC50 [13] is reported as 1.81 µM (inconclusive). The EC50 [14] was < 0.006 µM (active), the EC50 [15] was > 195 µM (inactive) and the EC50 [16] was < 1 µM (active). The EC50 [17] was > 120 µM (not active), the EC50 [18] was 3.5 µM (active) and the EC50 [19] was 1.81 µM (active). The EC50 [20] was > 260 µM (inactive).

In the case of COC(=O)C1=C(CSc2nc3c(cc2C#N)CN(C)CC3)OC(N)=C(C#N)C1c1ccccc1F (configuration not stated), the IC50 [21] is reported as > 100 µM (inactive) and the IC50 [22] is reported as 60.9 µM (inactive).
